Laboratory results: patent publication US20230398109A1, “USE OF PQQ AND DERIVATIVE THEREOF” (GUANGZHOU HUTONGYOUWU BIOTECHNOLOGY CO., LTD, priority 2021, published 2023)

Key:
Type in all cases: in vivo, human
[1] = test system: patients with menstrual abnormalities; test: Treatment of patients with abnormal menstruation, oral PQQ vs placebo, 3 months; settings: experimental group
Experimental: Experiment number: 100 peoples diagnosed with menstrual abnormalities, 50 people in the experimental group and the control group each. Experimental method: administering PQQ orally to the patients of experimental group, administering placebo orally to the patients of control group. The duration of the experiment was 3 months, and menstrual conditions (duration of menstrual, consumption and weights of sanitary napkin) were measured and recorded.

[2] = test system: patients with primary dysmenorrhea; test: Treatment of patients with primary dysmenorrhea, oral PQQ vs placebo, 3 months; settings: for Proportion of people with alleviation in primary dysmenorrhea (self-assessment): 50 people
Source text: Experiment number: 100 people have been diagnosed with primary dysmenorrhea, 50 people in the experimental group and the control group. Experimental method: administering PQQ orally to the patients of experimental group, administering placebo orally to the patients of control group. The duration of the experiment was 3 months, and menstrual pain was asked and recorded.

[3] = test system: patients with secondary dysmenorrhea; test: Treatment of patients with secondary dysmenorrhea, oral PQQ vs placebo, 3 months; settings: for Proportion of people with alleviation in secondary dysmenorrhea: 50 people
Experimental: Experiment number: 100 peoples have been diagnosed with secondary dysmenorrhea, with 50 peoples in the experimental group and the control group each. Experimental method: administering PQQ orally to the patients of experimental group, administering placebo orally to the patients of control group. The duration of the experiment was 3 months, and menstrual pain and pregnancy were asked and recorded. The dysmenorrhea index is determined based on the VAS scoring standard, which means patients self-evaluate the intensity of pain and the degree of psychologically unpleasant experience according to the degree of pain they feel, including: • 0 points: no pain; • 1-3 points: mild pain; • 4-6 points: moderate pain; • 7-9 points: severe pain; • 10 points: unbearable pain.

SMILES: O=C(O)c1cc(C(=O)O)c2c(n1)C(=O)C(=O)c1cc(C(=O)O)[nH]c1-2 [PQQ, 4,5-dioxo-1H-pyrrolo[2,3-f]quinoline-2,7,9-tricarboxylic acid]
- average monthly menstrual bleeding duration after treatment ([1]; 3 months oral, FIG. 2): about 1 week
- decrease of average amount of menstrual bleeding ([1]; 3 months oral, FIG. 3 (sanitary napkin consumption)): more than 30%
- average monthly menstrual bleeding duration at beginning of the experiment ([1]; baseline, FIG. 2): about 2 weeks
- Proportion of people with alleviation in primary dysmenorrhea (self-assessment) ([2]; evaluation time 1 month): 98%
- Proportion of people with alleviation in primary dysmenorrhea (self-assessment) ([2]; evaluation time 3 months): 100%
- dysmenorrhea index alleviated compared to beginning of the experiment ([2]; experimental group, 3 months): 100%
- average dysmenorrhea index (VAS score) change ([3]; FIG. 1, during treatment): decreased significantly
- Proportion of people with alleviation in secondary dysmenorrhea ([3]; evaluation time 1 month): 82%
- Proportion of people with alleviation in secondary dysmenorrhea ([3]; evaluation time 3 months): 100%
- cases that became pregnant ([3]; experimental group of 50, 3 months): 2 cases
- dysmenorrhea index alleviated compared to the beginning of the experiment ([3]; experimental group, 3 months): 100%
